“And” between values parts separate entries of the source, which are not always exact repeats. Equal entries are not always repeated.
Columns and labels:
[1] = target: T1, PRDM9 (amino acids: 195–415) (Homo sapiens, UniProt Q9NQV7); experiment: PRDM9 methyltransferase activity assay (3H-SAM scintillation proximity assay); format: biochemical; conditions: 100 µM compound
T1 construct: PRDM9 (amino acids: 195–415)
T1 sequence (Q9NQV7 195-415): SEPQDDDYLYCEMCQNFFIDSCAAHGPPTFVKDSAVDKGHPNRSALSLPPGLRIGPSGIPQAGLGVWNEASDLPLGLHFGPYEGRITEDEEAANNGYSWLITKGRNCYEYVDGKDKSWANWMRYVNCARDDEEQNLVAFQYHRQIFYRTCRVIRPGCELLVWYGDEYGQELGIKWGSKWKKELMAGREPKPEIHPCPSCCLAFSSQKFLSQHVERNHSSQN

[2] = target: T2, Adrenergic α2B (Homo sapiens, UniProt P18089); experiment: Eurofins Panlabs panel, radioligand binding; conditions: at 10 µM
T2 construct: NIMH Psychoactive Drug Screening Program, University of North Carolina at Chapel Hill
T2 sequence (P18089 whole entry): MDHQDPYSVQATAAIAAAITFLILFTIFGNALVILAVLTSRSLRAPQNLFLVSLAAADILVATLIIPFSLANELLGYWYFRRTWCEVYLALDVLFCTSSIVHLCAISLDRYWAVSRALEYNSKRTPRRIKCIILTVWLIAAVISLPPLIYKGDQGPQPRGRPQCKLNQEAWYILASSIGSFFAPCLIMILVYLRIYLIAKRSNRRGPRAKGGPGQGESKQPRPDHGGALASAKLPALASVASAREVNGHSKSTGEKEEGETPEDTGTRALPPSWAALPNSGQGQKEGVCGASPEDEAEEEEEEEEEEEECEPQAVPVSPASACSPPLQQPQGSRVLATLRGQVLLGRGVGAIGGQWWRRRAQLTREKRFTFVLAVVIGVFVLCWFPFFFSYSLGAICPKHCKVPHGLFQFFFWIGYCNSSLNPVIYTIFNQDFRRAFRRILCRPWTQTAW

[3] = target: T3, Histamine H3 (Homo sapiens, UniProt Q9Y5N1); experiment: Eurofins Panlabs panel, radioligand binding; conditions: at 10 µM
T3 construct: NIMH Psychoactive Drug Screening Program, University of North Carolina at Chapel Hill
T3 sequence (Q9Y5N1 whole entry): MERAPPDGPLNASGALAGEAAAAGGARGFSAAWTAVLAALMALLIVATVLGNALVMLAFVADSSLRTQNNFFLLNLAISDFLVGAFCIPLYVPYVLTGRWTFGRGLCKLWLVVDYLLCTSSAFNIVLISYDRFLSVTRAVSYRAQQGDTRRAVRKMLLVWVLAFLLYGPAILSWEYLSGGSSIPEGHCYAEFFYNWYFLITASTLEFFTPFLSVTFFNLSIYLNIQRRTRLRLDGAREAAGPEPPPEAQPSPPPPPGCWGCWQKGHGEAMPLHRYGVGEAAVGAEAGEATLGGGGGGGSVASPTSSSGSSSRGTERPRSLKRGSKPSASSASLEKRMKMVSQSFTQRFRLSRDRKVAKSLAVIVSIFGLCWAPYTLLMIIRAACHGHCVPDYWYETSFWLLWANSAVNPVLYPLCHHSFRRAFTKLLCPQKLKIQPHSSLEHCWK

[4] = target: T4, Opiate µ receptor (Homo sapiens, UniProt P35372); experiment: Eurofins Panlabs panel, radioligand binding; conditions: at 10 µM
T4 construct: Eurofins Panlabs Discovery Services, Taiwan
T4 sequence (P35372 whole entry): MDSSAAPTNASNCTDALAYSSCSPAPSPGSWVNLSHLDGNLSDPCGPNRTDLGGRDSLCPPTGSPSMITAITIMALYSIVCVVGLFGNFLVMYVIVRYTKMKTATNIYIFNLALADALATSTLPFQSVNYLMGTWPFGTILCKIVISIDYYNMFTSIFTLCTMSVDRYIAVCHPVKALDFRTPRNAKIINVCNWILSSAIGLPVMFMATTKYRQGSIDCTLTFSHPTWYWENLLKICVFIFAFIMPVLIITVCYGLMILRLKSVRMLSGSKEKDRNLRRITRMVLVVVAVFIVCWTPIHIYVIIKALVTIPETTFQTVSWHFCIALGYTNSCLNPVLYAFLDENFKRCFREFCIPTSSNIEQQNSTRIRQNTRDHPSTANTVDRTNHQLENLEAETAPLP

[5] = target: T5, Opiate µ receptor (MOR) (Homo sapiens, UniProt P35372); experiment: GPCR functional activity, GloSensor assay (agonist and antagonist mode); format: cell-based; conditions: for MOR Gi Agonist, raw signal: replicates 1-3; for MOR Tango Antagonist, raw signal: replicates 1-4
T5 construct: NIMH Psychoactive Drug Screening Program, University of North Carolina at Chapel Hill
T5 sequence (P35372 whole entry): as above
Excerpt: Supplementary Figure 5. Assessment of GPCR functional activity. […]
profiles were generously provided by the National Institute of Mental Health’s (NIMH)
Psychoactive Drug Screening Program, (Contract # HHSN-271-2013-00017-C) directed by B.L.
Roth, University of North Carolina at Chapel Hill and Project Officer J. Driscoll at NIMH,
Bethesda, Maryland, USA. Further details available at https://pdspdb.unc.edu/pdspWeb/.
MOR stands for “Opiate µ receptor”. […]
[…] Source data are provided as a

[6] = target: PRDM9 (Homo sapiens, UniProt Q9NQV7); experiment: PRDM9 cellular assay: H3K4me3 of endogenous histone H3 in HEK293T cells (western blot); format: cell-based; conditions: 20 h, technical replicates
PRDM9, sequence (Q9NQV7 whole entry): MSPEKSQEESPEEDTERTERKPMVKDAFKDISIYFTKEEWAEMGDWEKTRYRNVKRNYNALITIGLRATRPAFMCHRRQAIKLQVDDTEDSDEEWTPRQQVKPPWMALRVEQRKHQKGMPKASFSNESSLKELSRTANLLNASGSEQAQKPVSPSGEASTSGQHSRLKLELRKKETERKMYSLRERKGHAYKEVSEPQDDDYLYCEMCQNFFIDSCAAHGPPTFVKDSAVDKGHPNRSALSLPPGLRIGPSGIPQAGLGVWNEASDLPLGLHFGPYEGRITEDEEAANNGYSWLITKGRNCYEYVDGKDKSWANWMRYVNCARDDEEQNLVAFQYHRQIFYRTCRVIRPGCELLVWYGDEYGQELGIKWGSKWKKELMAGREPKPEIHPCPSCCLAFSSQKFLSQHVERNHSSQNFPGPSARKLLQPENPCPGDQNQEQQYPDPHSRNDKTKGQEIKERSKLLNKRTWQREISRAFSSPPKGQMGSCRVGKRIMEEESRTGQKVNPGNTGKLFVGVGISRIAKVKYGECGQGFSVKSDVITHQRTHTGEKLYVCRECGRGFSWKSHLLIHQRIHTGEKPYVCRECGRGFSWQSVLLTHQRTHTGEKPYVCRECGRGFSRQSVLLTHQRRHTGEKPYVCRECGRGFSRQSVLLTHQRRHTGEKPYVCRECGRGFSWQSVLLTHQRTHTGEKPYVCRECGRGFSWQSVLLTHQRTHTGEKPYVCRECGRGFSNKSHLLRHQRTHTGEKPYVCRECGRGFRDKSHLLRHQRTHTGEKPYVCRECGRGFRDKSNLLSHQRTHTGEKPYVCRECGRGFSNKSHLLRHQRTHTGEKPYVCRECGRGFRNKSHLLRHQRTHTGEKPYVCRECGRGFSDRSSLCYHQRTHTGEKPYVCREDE
Protocol: HEK293T (kind gift from Sam Benchimol, York University), or MCF7 (ATCC® HTB-22™), cells were plated (12 well plates) and next day co-transfected with 0.1 (HEK293T) or 0.2 (MCF7) µg of GFP-tagged histone H3 and with 0.1 (HEK293T) or 0.2 (MCF7) µg of Flag-tagged PRDM9/PRDM9 catalytic mutant (Y357S) and 0.8 or 0.6 µg of empty vector using JetPRIME® transfection reagent, following manufacturer instructions. After 4 h media was removed and cells were treated with compounds for 20 h. Next day, cells were lysed in lysis buffer (20 mM Tris-HCl pH 8, 150 mM NaCl, 1 mM EDTA, 10 mM MgCl2, 0.5% TritonX-100, 12.5 U mL^−1 benzonase (Sigma), complete EDTA-free protease inhibitor cocktail (Roche)). After 2 min incubation at RT, SDS was added to final 1% concentration. Cell lysates were analyzed in western blot for GFP and H3K4me3 levels. All cell lines were mycoplasma negative, as determined by MycoAlert™ Mycoplasma Detection Kit (Lonza).
Total cell lysates were resolved in 4–12% Bis-Tris Protein Gels (Invitrogen) and transferred in for 1.5 h (80 V) onto PVDF membrane (Millipore) in Tris-Glycine transfer buffer containing 20% MeOH and 0.05% SDS. Blots were blocked for 1 h in blocking buffer (5% milk in PBS) and incubated with primary antibodies anti-GFP (1:3000, Clontech # 632381), anti-H3K4me3 (1:1000, Millipore, #04-745), anti-histone H3 (1:2000, #ab10799, Abcam), anti-Flag (1:5000, #F4799, Sigma) in blocking buffer (5% BSA in 0.1% Tween 20 PBS) overnight at 4 °C. After five washes with 0.1% Tween 20 PBS the blots were incubated with goat-anti rabbit (IR800) and donkey anti-mouse (IR 680) antibodies (1:5000) in Odyssey Blocking Buffer (LiCor) for 1 h at RT and washed five times with 0.1% Tween 20 PBS. The signal was read on an Odyssey scanner (LiCor) at 800 nm and 700 nm and analyzed with Image Studio Ver.5.2 software. […]
endogenous histone H3. (a) Western blot analysis of cellular lysates prepared from HEK293T cells transfected with PRDM9-FLAG and treated with the indicated concentration of compound for 20 h. Mut denotes PRDM9 catalytic mutant (Y357S). (b) Non-linear fit of H3K4me3 fluorescence intensities normalized to intensities of histone H3 is shown. The results are MEAN +/- SEM of n=3 (technical replicates). Source data are provided as a Source Data file .
(§1) (1 picture or pasted object on this page, not shown here)

[7] = system: MCF7 cells; experiment: Cell growth, IncuCyte ZOOM cell number; format: cell-based; conditions: for Cell growth (Cell#): MCF7, 5 day treatment, technical replicates
Protocol: HEK293T or MCF7 cells were seeded on 96-well plates and the following day treated with compounds for indicated time. Cell number was determined with Vybrant® DyeCycle™ Green using IncuCyte™ ZOOM live cell imaging device (Essen Bioscence) and analyzed with IncuCyte™ ZOOM (2015A) software.
(top graphs) and MCF7 cells (bottom graph). Cells were treated with compounds for 2 and 4 days or 5 days in case of MCF7. Cell number was measured using IncuCyte™ ZOOM live cell imaging device. The results are MEAN +/- SEM, n=3 (technical replicates). Source data are provided as a Source Data file.
as §1

COc1cc(OC)cc(-c2noc(N3CCN(C)C4(CCN(c5ccccc5)CC4)C3)n2)c1 [MRK-740-NC]
PRDM9-Activity %, single experiments [1]: 82.7625% and 75.9398%

COc1cc(OC)cc(-c2noc(N3CCN(C)C4(CCN(c5ccnc(C)c5)CC4)C3)n2)c1 [MRK-740]
Binding [2]: > 50% | Binding [3]: > 50% | Binding [4]: > 50% | Functional activity (in words) ([5]; agonist and antagonist mode): some potential agonistic activity | MOR Gi Agonist, raw signal ([5]; log[MRK-740] -4.52): 523.998 and 475.715 and 479.854 | MOR Tango Antagonist, raw signal ([5]; log[MRK-740] -4.52): 6964.63 and 7700.23 and 6817.3 and 8343.47 | MOR Gi Agonist, raw signal ([5]; log[MRK-740] -5): 470.197 and 394.324 and 410.878 | MOR Tango Antagonist, raw signal ([5]; log[MRK-740] -5): 5111.95 and 4601.78 and 6359.89 and 4362.1 | MOR Gi Agonist, raw signal ([5]; log[MRK-740] -5.52): 427.432 and 384.668 and 477.095 | MOR Tango Antagonist, raw signal ([5]; log[MRK-740] -5.52): 5940.98 and 5705.68 and 7225.22 and 4368.69 | MOR Gi Agonist, raw signal ([5]; log[MRK-740] -6): 441.227 and 430.191 and 452.263 | MOR Tango Antagonist, raw signal ([5]; log[MRK-740] -6): 5577.04 and 4612.78 and 4219.16 and 5663.9 | MOR Gi Agonist, raw signal ([5]; log[MRK-740] -6.52): 489.51 and 460.54 and 466.058 | MOR Tango Antagonist, raw signal ([5]; log[MRK-740] -6.52): 4965.72 and 6716.14 and 4770.01 and 6856.88 | MOR Gi Agonist, raw signal ([5]; log[MRK-740] -7): 347.421 and 472.956 and 397.083 | MOR Tango Antagonist, raw signal ([5]; log[MRK-740] -7): 4544.61 and 3827.75 and 5625.42 and 6334.6 | MOR Gi Agonist, raw signal ([5]; log[MRK-740] -7.52): 452.263 and 417.776 and 391.565 | MOR Tango Antagonist, raw signal ([5]; log[MRK-740] -7.52): 9293.5 and 6501.73 and 7215.33 and 6591.89 | MOR Gi Agonist, raw signal ([5]; log[MRK-740] -8): 452.263 and 390.186 and 408.119 | MOR Tango Antagonist, raw signal ([5]; log[MRK-740] -8): 5778.25 and 5276.87 and 5467.09 and 6480.84 | MOR Gi Agonist, raw signal ([5]; log[MRK-740] -8.52): 394.631 and 390.374 and 448.545 | MOR Tango Antagonist, raw signal ([5]; log[MRK-740] -8.52): 5605.48 and 3120.04 and 6717.48 and 4672.02 | MOR Gi Agonist, raw signal ([5]; log[MRK-740] -9): 413.075 and 366.255 and 451.383 | MOR Tango Antagonist, raw signal ([5]; log[MRK-740] -9): 3692.19 and 5665.93 and 3690.78 and 6270.43 | MOR Gi Agonist, raw signal ([5]; log[MRK-740] -9.52): 424.425 and 437.195 and 438.613 | MOR Tango Antagonist, raw signal ([5]; log[MRK-740] -9.52): 5109.22 and 7289.66 and 4705.76 and 4478.02 | MOR Gi Agonist, raw signal ([5]; log[MRK-740] -10): 492.528 and 401.725 and 449.964 | MOR Tango Antagonist, raw signal ([5]; log[MRK-740] -10): 3780.75 and 4352.9 and 3641.58 and 3605.03 | MOR Gi Agonist, raw signal ([5]; log[MRK-740] -10.52): 408.819 and 508.135 and 464.152 | MOR Tango Antagonist, raw signal ([5]; log[MRK-740] -10.52): 4105.49 and 4174.37 and 7219.37 and 6121.41 | MOR Gi Agonist, raw signal ([5]; log[MRK-740] -11): 516.647 and 510.972 and 540.767 | MOR Tango Antagonist, raw signal ([5]; log[MRK-740] -11): 4295.27 and 3517.87 and 4659.37 and 5872.58 | MOR Gi Agonist, raw signal ([5]; log[MRK-740] -11.52): 627.314 and 488.271 and 566.306 | MOR Tango Antagonist, raw signal ([5]; log[MRK-740] -11.52): 8307.51 and 6114.38 and 4948.96 and 5192.17 | MOR Gi Agonist, raw signal ([5]; log[MRK-740] -12): 684.066 and 560.63 and 516.647 | MOR Tango Antagonist, raw signal ([5]; log[MRK-740] -12): 4510.35 and 4657.96 and 5814.94 and 6055.34 | H3K4me3/endogenousH3 - western blot ([6]; 0.256 µM): 93.518 % control and 101.99 % control and 96.0071 % control | H3K4me3/endogenousH3 - western blot ([6]; 0.64 µM): 97.4527 % control and 97.7629 % control and 94.1624 % control | H3K4me3/endogenousH3 - western blot ([6]; 1.6 µM): 94.826 % control and 91.8208 % control and 93.3575 % control | H3K4me3/endogenousH3 - western blot ([6]; 4 µM): 91.0956 % control and 84.7178 % control and 90.9069 % control | H3K4me3/endogenousH3 - western blot ([6]; 10 µM): 88.6856 % control and 79.3861 % control and 84.4562 % control | MCF7 cell viability (in words) ([7]; 10 µM, 5-day proliferation assay): minimal impact on MCF7 cell viability | Cell growth (Cell#) ([7]; 0.3 µM): 106.53 % control and 74.2747 % control and 75.9554 % control | Cell growth (Cell#) ([7]; 1 µM): 111.892 % control and 99.8066 % control and 82.4385 % control | Cell growth (Cell#) ([7]; 3 µM): 103.969 % control and 69.7125 % control and 102.608 % control | Cell growth (Cell#) ([7]; 10 µM): 66.6711 % control and 77.6362 % control and 64.0299 % control | Cell growth (Cell#) ([7]; 20 µM): 36.7371 % control and 35.4566 % control and 42.0196 % control

Reference: paper PMC6917776, “Discovery of a chemical probe for PRDM9” (Nature Communications, 2019)
